# Columns and labels:
# Type in all cases: functional
# [1] = test system: IGROV-1; assay: Cytotoxicity against human IGROV1 cells assessed as cell growth at 10^-4 M after 48 hrs by SRB assay relative to control; conditions: IGROV-1, 48 h, read-out: Activity
# [2] = test system: HCC 2998; assay: Cytotoxicity against human HCC2998 cells assessed as cell growth at 10^-4 M after 48 hrs by SRB assay relative to control; conditions: HCC 2998, 48 h, read-out: Activity
# [3] = Cytotoxicity against human OVCAR4 cells after 48 hrs by SRB assay; conditions: OVCAR-4, 48 h
# [4] = test system: SK-MEL-5; assay: Cytotoxicity against human SK-MEL-5 cells assessed as cell growth at 10^-7 M after 48 hrs by SRB assay relative to control; conditions: SK-MEL-5, 48 h, read-out: Activity
# [5] = Cytotoxicity against human Hs 578T cells after 48 hrs by SRB assay
# [6] = test system: MDA-MB-435; assay: Cytotoxicity against human MDA-MB-435 cells after 48 hrs by SRB assay; conditions: MDA-MB-435, 48 h; for CC50: read-out: LC50 (the source's name)
# [7] = test system: BT-549; assay: Cytotoxicity against human BT549 cells assessed as cell growth at 10^-7 M after 48 hrs by SRB assay relative to control; conditions: BT-549, 48 h, read-out: Activity
# [8] = Cytotoxicity against human OVCAR8 cells assessed as cell growth at 10^-7 M after 48 hrs by SRB assay relative to control; conditions: OVCAR-8, 48 h, read-out: Activity
# [9] = test system: HOP-62; assay: Cytotoxicity against human HOP62 cells assessed as cell growth at 10^-8 M after 48 hrs by SRB assay relative to control; conditions: HOP-62, 48 h, read-out: Activity
# [10] = test system: ACHN; assay: Cytotoxicity against human ACHN cells after 48 hrs by SRB assay
# [11] = test system: SF-539; assay: Cytotoxicity against human SF539 cells after 48 hrs by SRB assay; conditions: SF-539, 48 h; for CC50: read-out: LC50 (the source's name)
# [12] = test system: IGROV-1; assay: Cytotoxicity against human IGROV1 cells assessed as cell growth at 10^-8 M after 48 hrs by SRB assay relative to control; conditions: IGROV-1, 48 h, read-out: Activity
# [13] = test system: HL-60(TB); assay: Cytotoxicity against human HL-60(TB) cells assessed as cell growth at 10^-6 M after 48 hrs by SRB assay relative to control; conditions: HL-60, 48 h, read-out: Activity
# [14] = test system: Malme-3M; assay: Cytotoxicity against human MALME-3M cells assessed as cell growth at 10^-4 M after 48 hrs by SRB assay relative to control; conditions: read-out: Activity
# [15] = test system: NCI-H23; assay: Cytotoxicity against human NCI-H23 cells assessed as cell growth at 10^-8 M after 48 hrs by SRB assay relative to control; conditions: NCI-H23, 48 h, read-out: Activity
# [16] = test system: MOLT-4; assay: Cytotoxicity against human MOLT4 cells assessed as cell growth at 10^-8 M after 48 hrs by SRB assay relative to control; conditions: MOLT-4, 48 h, read-out: Activity
# [17] = test system: SK-MEL-28; assay: Cytotoxicity against human SK-MEL-28 cells assessed as cell growth at 10^-6 M after 48 hrs by SRB assay relative to control; conditions: SK-MEL-28, 48 h, read-out: Activity
# [18] = test system: T47D; assay: Cytotoxicity against human T47D cells after 48 hrs by SRB assay
# [19] = test system: SK-MEL-5; assay: Cytotoxicity against human SK-MEL-5 cells after 48 hrs by SRB assay; conditions: SK-MEL-5, 48 h
# [20] = Cytotoxicity against human HCT15 cells assessed as cell growth at 10^-4 M after 48 hrs by SRB assay relative to control; conditions: HCT-15, 48 h, read-out: Activity
# [21] = test system: Malme-3M; assay: Cytotoxicity against human MALME-3M cells assessed as cell growth at 10^-7 M after 48 hrs by SRB assay relative to control; conditions: read-out: Activity
# [22] = test system: NCI-H460; assay: Cytotoxicity against human NCI-H460 cells assessed as cell growth at 10^-8 M after 48 hrs by SRB assay relative to control; conditions: NCI-H460, 48 h, read-out: Activity
# [23] = test system: SK-MEL-2; assay: Cytotoxicity against human SK-MEL-2 cells after 48 hrs by SRB assay; conditions: SK-MEL-2, 48 h
# [24] = test system: RXF 393; assay: Cytotoxicity against human RXF393 cells assessed as cell growth at 10^-6 M after 48 hrs by SRB assay relative to control; conditions: RXF 393, 48 h, read-out: Activity
# [25] = Cytotoxicity against human OVCAR8 cells assessed as cell growth at 10^-6 M after 48 hrs by SRB assay relative to control; conditions: OVCAR-8, 48 h, read-out: Activity
# [26] = Cytotoxicity against human OVCAR5 cells assessed as cell growth at 10^-4 M after 48 hrs by SRB assay relative to control; conditions: OVCAR-5, 48 h, read-out: Activity
# [27] = Cytotoxicity against human OVCAR5 cells after 48 hrs by SRB assay; conditions: OVCAR-5, 48 h; for CC50: read-out: LC50 (the source's name)
# [28] = test system: SF-539; assay: Cytotoxicity against human SF539 cells assessed as cell growth at 10^-6 M after 48 hrs by SRB assay relative to control; conditions: SF-539, 48 h, read-out: Activity
# [29] = test system: RXF 393; assay: Cytotoxicity against human RXF393 cells assessed as cell growth at 10^-8 M after 48 hrs by SRB assay relative to control; conditions: RXF 393, 48 h, read-out: Activity
# [30] = test system: MCF7; assay: Cytotoxicity against human MCF7 cells after 48 hrs by SRB assay; conditions: MCF7, 48 h; for CC50: read-out: LC50 (the source's name)
# [31] = test system: HL-60(TB); assay: Cytotoxicity against human HL-60(TB) cells assessed as cell growth at 10^-8 M after 48 hrs by SRB assay relative to control; conditions: HL-60, 48 h, read-out: Activity
# [32] = test system: 786-0; assay: Cytotoxicity against human 786-0 cells assessed as cell growth at 10^-8 M after 48 hrs by SRB assay relative to control; conditions: 786-0, 48 h, read-out: Activity
# [33] = Cytotoxicity against human OVCAR8 cells assessed as cell growth at 10^-8 M after 48 hrs by SRB assay relative to control; conditions: OVCAR-8, 48 h, read-out: Activity
# [34] = test system: HL-60(TB); assay: Cytotoxicity against human HL-60(TB) cells after 48 hrs by SRB assay; conditions: HL-60, 48 h; for CC50: read-out: LC50 (the source's name)
# [35] = test system: SNB-75; assay: Cytotoxicity against human SNB75 cells assessed as cell growth at 10^-4 M after 48 hrs by SRB assay relative to control; conditions: SNB-75, 48 h, read-out: Activity
# [36] = Cytotoxicity against human OVCAR4 cells assessed as cell growth at 10^-4 M after 48 hrs by SRB assay relative to control; conditions: OVCAR-4, 48 h, read-out: Activity
compound,measurement,setting,value
COc1ccc(CCN2COc3c([C@@H](C)CCC=C(C)C)ccc(C)c3C2)cc1OC,growth at 100 µM,[1],-99%
same,growth at 100 µM,[2],-100%
same,GI50,[3],2.89 µM
same,LC50,[3],> 100 µM
same,TGI,[3],16 µM
same,growth at 0.1 µM,[4],91%
same,GI50,[5],3.94 µM
same,LC50,[5],65.2 µM
same,TGI,[5],17.3 µM
same,GI50,[6],3.11 µM
same,TGI,[6],10.9 µM
same,CC50,[6],44.9 µM
same,growth at 0.1 µM,[7],91%
same,growth at 0.1 µM,[8],95%
same,growth at 0.01 µM,[9],101%
same,GI50,[10],6.11 µM
same,LC50 (concentration killing 50% of cells),[10],48.1 µM
same,TGI,[10],20.2 µM
same,GI50,[11],4.47 µM
same,TGI,[11],15.9 µM
same,CC50,[11],39.9 µM
same,growth at 0.01 µM,[12],119%
same,growth at 1 µM,[13],100%
same,growth at 100 µM,[14],-88%
same,growth at 0.01 µM,[15],97%
same,growth at 0.01 µM,[16],90%
same,growth at 1 µM,[17],99%
same,GI50,[18],1.78 µM
same,LC50 (concentration killing 50% of cells),[18],8.12 µM
same,TGI,[18],3.8 µM
same,GI50,[19],1.64 µM
same,LC50,[19],5.66 µM
same,TGI,[19],3.04 µM
same,growth at 100 µM,[20],-87%
same,growth at 0.1 µM,[21],86%
same,growth at 0.01 µM,[22],101%
same,GI50,[23],1.88 µM
same,LC50,[23],7.79 µM
same,TGI,[23],3.82 µM
same,growth at 1 µM,[24],76%
same,growth at 1 µM,[25],94%
same,growth at 100 µM,[26],-100%
same,GI50,[27],8.53 µM
same,TGI,[27],20.8 µM
same,CC50,[27],45.6 µM
same,growth at 1 µM,[28],96%
same,growth at 0.01 µM,[29],70%
same,GI50,[30],3.29 µM
same,TGI,[30],11 µM
same,CC50,[30],36.3 µM
same,growth at 0.01 µM,[31],98%
same,growth at 0.01 µM,[32],101%
same,growth at 0.01 µM,[33],86%
same,GI50,[34],4.11 µM
same,TGI,[34],60.9 µM
same,CC50,[34],> 100 µM
same,growth at 100 µM,[35],-50%
same,growth at 100 µM,[36],-45%
CC(C)=CCC[C@H](C)c1ccc(C)c(CNCC2CCNCC2)c1O,growth at 100 µM,[1],24%
same,growth at 100 µM,[2],-94%
same,GI50,[3],18.2 µM
same,LC50,[3],> 25 µM
same,TGI,[3],> 25 µM
same,growth at 0.1 µM,[4],90%
same,GI50,[5],6.53 µM
same,LC50,[5],> 25 µM
same,TGI,[5],> 25 µM
same,GI50,[6],3.71 µM
same,TGI,[6],8.44 µM
same,CC50,[6],19.2 µM
same,growth at 0.1 µM,[7],89%
same,growth at 0.1 µM,[8],104%
same,growth at 0.01 µM,[9],96%
same,GI50,[10],4.68 µM
same,LC50 (concentration killing 50% of cells),[10],> 25 µM
same,TGI,[10],12.7 µM
same,GI50,[11],4.07 µM
same,TGI,[11],8.32 µM
same,CC50,[11],17 µM
same,growth at 0.01 µM,[12],102%
same,growth at 1 µM,[13],88%
same,growth at 100 µM,[14],-62%
same,growth at 0.01 µM,[15],94%
same,growth at 0.01 µM,[16],107%
same,growth at 1 µM,[17],98%
same,GI50,[18],4.33 µM
same,LC50 (concentration killing 50% of cells),[18],18.1 µM
same,TGI,[18],8.86 µM
same,GI50,[19],3.41 µM
same,LC50,[19],12.9 µM
same,TGI,[19],6.63 µM
same,growth at 100 µM,[20],-11%
same,growth at 0.1 µM,[21],89%
same,growth at 0.01 µM,[22],101%
same,GI50,[23],5.03 µM
same,LC50,[23],19.2 µM
same,TGI,[23],9.83 µM
same,growth at 1 µM,[24],95%
same,growth at 1 µM,[25],100%
same,growth at 100 µM,[26],27%
same,GI50,[27],9.56 µM
same,TGI,[27],> 25 µM
same,CC50,[27],> 25 µM
same,growth at 1 µM,[28],92%
same,growth at 0.01 µM,[29],101%
same,GI50,[30],4.5 µM
same,TGI,[30],8.34 µM
same,CC50,[30],15.5 µM
same,growth at 0.01 µM,[31],86%
same,growth at 0.01 µM,[32],93%
same,growth at 0.01 µM,[33],95%
same,GI50,[34],5.02 µM
same,TGI,[34],10.2 µM
same,CC50,[34],20.7 µM
same,growth at 100 µM,[35],-32%
same,growth at 100 µM,[36],44%
